Here are results for four compounds from PMC6695897, “Synthesis and In Vitro Screening of Novel Heterocyclic β-D-Gluco- and β-D-Galactoconjugates as Butyrylcholinesterase Inhibitors” (Molecules, 2019).

In the test the target is T1, horse serum butyrylcholinesterase (BChE) (Equus caballus, UniProt P81908).
T1 construct: native enzyme from horse serum, lyophilised, commercial (Sigma-Aldrich), untagged
In words: Ellman assay, global fit to mixed inhibition model. The test is classed as biochemical. The settings on record: for Ki: read-out: Ki ± SEM (μM) ^1. An excerpt:
Ellman assay, global fit to mixed inhibition model on horse serum butyrylcholinesterase (BChE)
On the technique in general: Ellman's reagent forms a yellow product with free thiols.

Read-outs that look alike come from different tables or passages of the source.

T1 sequence (P81908 whole entry): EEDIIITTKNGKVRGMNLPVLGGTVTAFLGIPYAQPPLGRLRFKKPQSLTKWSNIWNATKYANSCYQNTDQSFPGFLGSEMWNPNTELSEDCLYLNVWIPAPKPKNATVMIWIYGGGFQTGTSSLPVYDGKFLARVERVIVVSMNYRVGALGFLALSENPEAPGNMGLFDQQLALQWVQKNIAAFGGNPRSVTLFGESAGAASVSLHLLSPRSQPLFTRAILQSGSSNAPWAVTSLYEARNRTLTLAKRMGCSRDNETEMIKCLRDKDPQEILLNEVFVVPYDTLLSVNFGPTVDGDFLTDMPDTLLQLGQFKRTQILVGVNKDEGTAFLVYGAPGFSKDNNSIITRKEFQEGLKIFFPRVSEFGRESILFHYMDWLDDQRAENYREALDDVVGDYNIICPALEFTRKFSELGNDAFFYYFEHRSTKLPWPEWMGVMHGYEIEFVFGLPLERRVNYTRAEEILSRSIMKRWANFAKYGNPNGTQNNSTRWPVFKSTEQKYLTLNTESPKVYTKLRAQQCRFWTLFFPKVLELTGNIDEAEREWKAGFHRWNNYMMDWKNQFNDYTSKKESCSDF

Turning to `OC[C@H]1O[C@@H](OCCn2cnc3ccccc32)[C@H](O)[C@@H](O)[C@@H]1O` [compound 5, N1-[2-(β-D-glucopyranozyloxy)ethyl]benzimidazole], the Ki – broadly, a measure of affinity in units of concentration, obtained from inhibition or displacement – (acetylthiocholine 0.04–1 mM, DTNB 0.3 mM, 0.1 M sodium phosphate pH 7.4, 25 °C, mixed) came to 16 ± 1.6 µM.
`OC[C@H]1O[C@@H](OCC[n+]2cn(Cc3ccccc3)c3ccccc32)[C@H](O)[C@@H](O)[C@@H]1O` [compound 7, N1-benzyl-N3-[2-(β-D-glucopyranozyloxy)ethyl]benzimidazolium bromide]: the Ki worked out at 52 ± 3 µM.
As for `OC[C@H]1O[C@@H](OCCn2cnc3ccccc32)[C@H](O)[C@@H](O)[C@H]1O` [compound 12, N1-[2-(β-D-galactopyranozyloxy)ethyl]benzimidazole], the “Ki ± SEM (μM) ^1” value (acetylthiocholine 0.04–1 mM, DTNB 0.3 mM, 0.1 M sodium phosphate pH 7.4, 25 °C, unreliable (extrapolated beyond tested 15–170 μM)) was 782 ± 306 µM.
Regarding `OC[C@H]1O[C@@H](OCC[n+]2cn(Cc3ccccc3)c3ccccc32)[C@H](O)[C@@H](O)[C@H]1O` [compound 14, N1-benzyl-N3-[2-(β-D-galactopyranozyloxy)ethyl]benzimidazolium bromide], the inhibition constant (Ki) was 26 ± 2.7 µM.
